Molecules are shown by their SMILES. pIC50, pKd, pKi: −log10 of the molar value. Where only a bound is given, the exact number is not on record here.

Test [1] has as its target T1, Vascular endothelial growth factor receptor 2 (Homo sapiens, UniProt P35968). The experiment in a line: Inhibition of human N-terminal His-tagged phosphorylated VEGFR2 in presence of ATP measured without preincubation by AlphaScreen analysis. On the technique in general: In Alpha technology, singlet oxygen from a donor bead excites a nearby acceptor bead.
Test [2] has as its target T1, Vascular endothelial growth factor receptor 2.
Test [3] has the same target. As to the kind of experiment: Binding affinity to human N-terminal His-tagged non-phosphorylated VEGFR2 assessed as dissociation rate constant by surface plasmon resonance analysis. Background: In SPR one partner is held on a chip, and binding of the other changes the refractive index at the surface.
Test [4] has the same target. The source holds these as a separate data set.
The target is the same in test [5]. This is another data set of the same source.
Description: Inhibition of human N-terminal His-tagged non-phosphorylated VEGFR2 assessed as dissociation half life
Test [6] shares this target. As to the kind of experiment: Inhibition of human N-terminal His-tagged phosphorylated VEGFR2 preincubated for 120 mins in presence of ATP by AlphaScreen analysis.
For test [7] the target is unchanged. The source holds these as a separate data set.
Description: Binding affinity to human N-terminal His-tagged non-phosphorylated VEGFR2 assessed as association constant by surface plasmon resonance analysis
Test [8] shares this target. As to the kind of experiment: Inhibition of human N-terminal His-tagged non-phosphorylated VEGFR2 in presence of ATP measured without preincubation by AlphaScreen analysis.
Test [9] shares this target. As to the kind of experiment: Inhibition of human N-terminal His-tagged non-phosphorylated VEGFR2 after 60 mins by activity based 100 fold dilution assay.
Test [10] shares this target. The source holds these as a separate data set.
Description: Inhibition of human N-terminal His-tagged phosphorylated VEGFR2 assessed as dissociation half life after 60 mins by ligand displacement based enzyme-inhibitor dilution assay
For test [11] the target is unchanged. The experiment in a line: Inhibition of human N-terminal His-tagged non-phosphorylated VEGFR2 after 10 mins by Global fit analysis.
Test [12] has the same target. The experiment in a line: Binding affinity to human N-terminal His-tagged non-phosphorylated VEGFR2 by surface plasmon resonance analysis.
For test [13] the target is unchanged. This is another data set of the same source.
Description: Inhibition of human N-terminal His-tagged non-phosphorylated VEGFR2 assessed as dissociation half life after 60 mins by ligand displacement based enzyme-inhibitor dilution assay
For test [14] the target is unchanged. The experiment in a line: Inhibition of human N-terminal His-tagged non-phosphorylated VEGFR2 preincubated for 120 mins in presence of ATP by AlphaScreen analysis.
For test [15] the target is unchanged. The experiment in a line: Inhibition of human N-terminal His-tagged non-phosphorylated VEGFR2 after 60 mins by ligand displacement based enzyme-inhibitor dilution assay.

T1 sequence (P35968 whole entry): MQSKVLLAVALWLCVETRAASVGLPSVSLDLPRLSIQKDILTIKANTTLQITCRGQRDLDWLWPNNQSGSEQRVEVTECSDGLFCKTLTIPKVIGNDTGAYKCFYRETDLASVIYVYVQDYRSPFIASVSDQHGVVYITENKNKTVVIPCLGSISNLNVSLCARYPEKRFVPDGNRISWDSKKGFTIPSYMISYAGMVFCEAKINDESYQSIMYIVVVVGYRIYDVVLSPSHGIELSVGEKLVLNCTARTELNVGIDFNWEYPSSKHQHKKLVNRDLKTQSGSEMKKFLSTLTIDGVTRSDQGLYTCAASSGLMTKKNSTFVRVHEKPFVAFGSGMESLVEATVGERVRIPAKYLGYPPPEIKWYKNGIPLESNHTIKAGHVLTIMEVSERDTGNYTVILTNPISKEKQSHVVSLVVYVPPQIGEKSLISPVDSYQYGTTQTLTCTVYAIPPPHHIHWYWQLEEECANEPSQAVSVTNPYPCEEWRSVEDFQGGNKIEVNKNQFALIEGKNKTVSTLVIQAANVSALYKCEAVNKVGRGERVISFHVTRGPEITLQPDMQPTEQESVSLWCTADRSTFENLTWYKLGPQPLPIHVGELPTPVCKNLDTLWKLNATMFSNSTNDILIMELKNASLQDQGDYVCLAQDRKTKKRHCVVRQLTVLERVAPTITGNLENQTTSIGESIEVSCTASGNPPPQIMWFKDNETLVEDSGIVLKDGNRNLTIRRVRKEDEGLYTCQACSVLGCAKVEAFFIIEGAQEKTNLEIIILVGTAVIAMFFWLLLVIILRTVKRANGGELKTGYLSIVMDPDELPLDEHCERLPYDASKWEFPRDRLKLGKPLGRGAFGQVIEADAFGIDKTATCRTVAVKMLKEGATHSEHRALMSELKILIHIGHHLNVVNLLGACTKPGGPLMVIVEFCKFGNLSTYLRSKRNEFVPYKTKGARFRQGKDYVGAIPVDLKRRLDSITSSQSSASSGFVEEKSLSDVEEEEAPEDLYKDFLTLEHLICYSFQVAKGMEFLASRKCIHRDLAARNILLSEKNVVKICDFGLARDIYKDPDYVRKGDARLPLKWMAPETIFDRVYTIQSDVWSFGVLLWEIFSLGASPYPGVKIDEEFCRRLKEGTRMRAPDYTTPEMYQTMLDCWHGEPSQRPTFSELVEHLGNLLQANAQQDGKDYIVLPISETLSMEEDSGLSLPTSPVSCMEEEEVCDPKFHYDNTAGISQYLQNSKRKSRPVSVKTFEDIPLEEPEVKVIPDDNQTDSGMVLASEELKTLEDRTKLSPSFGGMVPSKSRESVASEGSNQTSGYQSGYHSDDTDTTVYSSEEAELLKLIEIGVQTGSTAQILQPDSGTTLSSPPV

By pIC50 is commonly meant the negative decadic logarithm of the IC50, by convention in mol/L. Broadly, the pKi is the negative decadic logarithm of the Ki, by convention in mol/L. For orientation: koff means the rate constant with which the complex falls apart. By pKd is commonly meant the Kd on a negative log10 scale, so that one unit is a factor of ten. Low readings indicate a high Kd, high ones a low Kd. Take `Cn1ccc2ncnc(Oc3ccc(NC(=O)Nc4cccc(C(F)(F)F)c4)c(F)c3)c21`: the pIC50 in test [1] is 7.34; in [6], 7.85; in test [8] it was 8.33; in test [14] it was 10.48. For the same compound, the pKi is 7.64 in [1], 10.62 in test [9], 8.34 in [11] and 10.36 in test [15]. Further, the T1/2 in test [2] is 260 min; in test [4], less than 5 min; in test [5], 1.3 min; in test [10] it was less than 5 min; in [13] it was 130 min. Also, the off-rate (koff) in [3] is 0.0031 s⁻¹. Besides, the Ka in test [7] was 1.6 ×10⁵ /M/s. This compound showed a pKd in test [12] of 7.72.

`CN[C@@H]1C[C@H]2O[C@@](C)([C@@H]1OC)n1c3ccccc3c3c4c(c5c6ccccc6n2c5c31)C(=O)NC4`: the T1/2 in [2], in test [4], in test [10] and in test [13] was less than 5 min in each case.

For the origin of these results see ChEMBL document CHEMBL1817643, “Biochemical characterization of a novel type-II VEGFR2 kinase inhibitor: comparison of binding to non-phosphorylated and phosphorylated VEGFR2” (Bioorg Med Chem, 2011).
